Assay results as given in PubChem BioAssay AID1418 (Emory University Molecular Libraries Screening Center, 2008).
Activity calls are given as the source filed them. How the calls were made is not given here.

Biological target: Induced myeloid leukemia cell differentiation protein Mcl-1 (Homo sapiens) (UniProt Q07820)
Assay: blockers of Bid binding to Mcl-1 – biochemical, TR-FRET, dose response (AID 1418)
Settings: Mcl-1/Bid peptide binding, TR-FRET (europium/Dy647), 2 hr

Chain of Induced myeloid leukemia cell differentiation protein Mcl-1 (Homo sapiens) (Q07820 whole entry, looked up): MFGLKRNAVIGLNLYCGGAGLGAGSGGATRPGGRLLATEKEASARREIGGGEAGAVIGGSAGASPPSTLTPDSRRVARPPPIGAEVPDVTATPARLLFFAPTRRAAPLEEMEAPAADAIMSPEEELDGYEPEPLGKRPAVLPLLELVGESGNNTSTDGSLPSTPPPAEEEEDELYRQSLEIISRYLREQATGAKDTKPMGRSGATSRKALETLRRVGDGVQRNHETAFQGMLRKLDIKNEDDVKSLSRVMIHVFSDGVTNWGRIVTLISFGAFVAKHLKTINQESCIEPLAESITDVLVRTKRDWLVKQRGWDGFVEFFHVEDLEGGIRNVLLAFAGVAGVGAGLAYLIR

SMILES | IC50
Cc1ccc(NC(=O)C(=O)NCc2ccc(/C=C(/C#N)C(=O)NCc3cccnc3)o2)cc1C | > 54 µM (inactive)
CC1CCCN(C(=S)Nc2ccc3nc4n(c(=O)c3c2)CCCCC4)C1 (stereo not given) | > 54 µM (inactive)
CN(c1cccc(NC(=O)c2ccccc2N(C)S(C)(=O)=O)c1)S(C)(=O)=O | > 54 µM (inactive)
C=CC(c1ccccc1)C(C(=O)c1ccccc1)N(C)C (stereo not given) | > 54 µM (inactive)
Cc1c(C(=O)OCc2ccccc2)[nH]c2c1C(=O)CC(c1ccco1)C2 (stereo not given) | > 54 µM (inactive)
Nc1ccc(C(=O)N/N=C\c2cc(N=Nc3cccc4ccccc34)ccc2O)cc1 | 12 µM
Cc1ccc(S(=O)(=O)N(C)CC(O)Cn2c3ccccc3c3ccccc32)cc1 (stereo not given) | > 54 µM (inactive)
C#CCOCCOCCOCCNc1nc(N2CCN(C(=O)C(Cc3ccc(O)cc3)n3cc(C(N)CC(C)C)nn3)CC2)nc(N2CCN(C(=O)C(Cc3cc4ccccc4[nH]3)n3cc(C(N)Cc4ccc(O)cc4)nn3)CC2)n1 (stereo not given) | > 54 µM (inactive)
O=S(=O)(c1ccccc1F)N1CCN(Cc2nc3ccccc3[nH]2)CC1 | > 54 µM (inactive)
CCCOP(=O)(OCCC)C(NC(=O)c1ccccc1)=C(Cl)Cl | 0.53 µM
O=C(O)c1ccccc1-c1ccc(/C=c2\sc3nc4cc(Br)cnc4n3c2=O)o1 | 18.5 µM
CC(=O)Cc1nsc(NC(=O)c2ccc(-c3cc(C(F)(F)F)ccc3Cl)o2)n1 | > 54 µM (inactive)
CN(C(=O)c1ccc(C#N)cc1)c1nnc(-c2cnccn2)s1 | > 54 µM (inactive)
Cc1ccc(-c2cn(-c3ccccc3)c(SCC(N)=O)n2)cc1C | > 54 µM (inactive)
CC(C)(C)CC(C)(C)NC(=S)NC1CCN(Cc2ccccc2)CC1 | > 54 µM (inactive)
COc1ccc(Nc2nc(C)c3ccccc3n2)cc1 | > 54 µM (inactive)
Cc1cc(NC2C3CC4CC(C3)CC2C4)n2nnnc2n1 (stereo not given) | > 54 µM (inactive)
COc1cccc(/C=N/NC(=O)c2cc3cc([N+](=O)[O-])ccc3s2)c1O | 1.58 µM
CCOc1ccc(-c2ccc(/C=C3/C(=N)N4C=CSC4=NC3=O)o2)c([N+](=O)[O-])c1 | 0.86 µM
O=C(O)CCCN1C(=O)/C(=C\c2ccc(-c3nc4ccccc4s3)o2)SC1=S | 0.53 µM
COc1ccccc1OCCOc1ccc(/C=C2/C(=N)N3OC(C)=CC3=NC2=O)cc1OC | 0.56 µM
CCOC(=O)c1cccc(NC(=O)CCNS(=O)(=O)c2ccc3c(c2)CCN3C(=O)CC)c1 | > 54 µM (inactive)
CCOC(=O)c1cc2occc2n1CC(=O)NC1CCCCC1C (stereo not given) | > 54 µM (inactive)
O=c1c2ccccc2sc2nc(C3CCCCC3)n(Cc3ccco3)c(=O)c12 | 19.3 µM

SMILES | IC50
Cn1c(SCc2nc3ccccc3s2)nnc1-c1ccc2c(c1)OCO2 | > 54 µM (inactive)
C=CCn1c(SCC(=O)c2[nH]c(C)c(C(=O)OCC)c2C)nc2scc(-c3ccc(OC)c(OC)c3)c2c1=O | 0.84 µM
Cc1ccc(NC(=O)Cn2c(O)c(N=NC(=O)c3cc4ccccc4cc3O)c3ccccc32)cc1 | 6.65 µM
CN(C1=NC(=O)CS1)c1ccc(O)cc1 | > 54 µM (inactive)
COc1ccc(/C=C2\C(=O)NC(=S)N2C(=O)c2ccc(F)cc2)cc1 | 8.97 µM
O=C(CSc1nc2ccccc2c2nc3ccccc3n12)NCc1ccco1 | 2.5 µM
Cc1ccc(NC(=S)N2CCN(c3ncccn3)CC2)cc1C | > 54 µM (inactive)
CC1(C(=O)NNC(=O)C2CCCCC2)CC1(Cl)Cl (stereo not given) | > 54 µM (inactive)
Cc1cc(NS(=O)(=O)c2ccc(NC(NC(=O)C(C(F)(F)F)C(F)(F)F)(C(F)(F)F)C(F)(F)F)cc2)no1 | 1.62 µM
COc1ccc2nc(N3C(=O)/C(=C/c4ccc(Cl)cc4)NC3=S)sc2c1 | 1.75 µM
Cc1cc2nc(-c3ccc(NC(=O)C(C)C)cc3)oc2cc1C | 3.02 µM
O=[N+]([O-])/C(C(Cl)=C(Cl)Cl)=C(\Nc1ccc(F)cc1)n1cncn1 | 17.4 µM
CCOc1ccc(/C=C/C(=O)Nc2ccc(N3CCOCC3)cc2)cc1 | > 54 µM (inactive)
CN(C)c1ccc(-c2nnc(-c3ccc(S(=O)(=O)C(F)F)cc3)o2)cc1 | 2.48 µM
CCCc1nc2oc3cc(OC)ccc3c(=O)c2c(=O)n1CCc1ccccc1 | > 54 µM (inactive)
CN(CCO)S(=O)(=O)c1ccc2c(c1)C(=NO)c1cc(S(=O)(=O)N(C)CCO)ccc1-2 | > 54 µM (inactive)
COc1ccc(C(=O)N2CCN(Cc3ccccc3C)CC2)cc1OC | > 54 µM (inactive)
COc1ccc(C(C)=O)cc1COc1ccc(Cl)cc1Cl | > 54 µM (inactive)
O=C(C[n+]1cc(-c2ccccc2)n2c1CCC2)N1c2ccccc2Sc2ccccc21 | > 54 µM (inactive)
COc1ccc2[nH]c(=O)c(CN(C(=O)C3CCCO3)c3ccc(C)c(C)c3)cc2c1 (stereo not given) | > 54 µM (inactive)
O=C1N=c2ccccc2=C1c1c(O)n(-c2cccc(F)c2)[nH]c1=O | 1.56 µM
O=c1c(C(c2ccccc2)c2c(O)sc3ccccc3c2=O)c(O)sc2ccccc12 | 10.6 µM
CC(=O)Nc1cccc(NC(=O)Nc2ccc(C(C)=O)cc2)c1 | > 54 µM (inactive)
CCCCCSc1nnc2c(n1)OC(c1cccn1C)N(C(C)=O)c1ccccc1-2 (stereo not given) | > 54 µM (inactive)

SMILES | IC50
O=c1c2ccccc2nc(/C=C/c2cccnc2)n1CCc1ccccc1 | 0.63 µM
CCn1c(-c2cccc(Br)c2)n[nH]c1=S | > 54 µM (inactive)
Cc1occc1C(=O)NNC(=O)Nc1ccc([N+](=O)[O-])cc1 | > 54 µM (inactive)
COc1ccc2nc(-n3c(O)c(C4=c5ccccc5=NC4=O)[nH]c3=S)sc2c1 | 1.38 µM
NC(=O)NC(CC(=O)NCCc1ccc(S(N)(=O)=O)cc1)c1ccc(Cl)cc1 (stereo not given) | > 54 µM (inactive)
O=C(O)CCN1C(=O)/C(=C/c2cn(-c3ccccc3)nc2-c2cccs2)SC1=S | 6.79 µM
O=C(Nc1ccc(-c2nc3ccc(NC(=O)c4cccs4)cc3[nH]2)cc1)c1cccs1 | 0.79 µM
CN1C(=O)/C(=C2\SC(=S)N(CCCCCC(=O)O)C2=O)c2ccccc21 | 29.4 µM
Cc1cc(C)cc(N(CC(=O)NC2CCC(C)CC2)S(=O)(=O)c2c(C)noc2C)c1 (stereo not given) | > 54 µM (inactive)
CC1CC(C)CN(CCOCCSc2ccccc2)C1 (stereo not given) | > 54 µM (inactive)
COc1cccc(C(=O)N2CCN(Cc3ccccn3)CC2)c1OC | > 54 µM (inactive)
OCC1CCCN(c2nc(CN3CCCCC3)nc3scc(-c4ccccc4)c23)C1 (stereo not given) | > 54 µM (inactive)
COc1cc2cc3c(N)c(C(=O)Nc4sc(C)c(C)c4C#N)sc3nc2cc1OC | 0.97 µM
COC(=O)CN1C(C)=Nc2ccc(Br)cc2C1c1ccccc1 (stereo not given) | > 54 µM (inactive)
Cc1ccc(-c2nc(SCC(=O)Nc3ccccc3OC(F)F)c3c(C)c(C(=O)O)sc3n2)cc1 | > 54 µM (inactive)
COc1ccc(NC(=O)c2cc(C3CC3)on2)c(OC)c1 | > 54 µM (inactive)
NS(=O)(=O)c1ccc(N/N=C/c2ccc(O)c(O)c2O)c([N+](=O)[O-])c1 | 3.17 µM
Nc1c(C(=O)NCCc2ccccc2)c2nc3ccccc3nc2n1CCN1CCOCC1 | > 54 µM (inactive)
CC1(C)Cc2cccc(OCC(=O)OCC(=O)Nc3cccc(S(N)(=O)=O)c3)c2O1 | > 54 µM (inactive)
NCCCC[C@H](NC(=O)C1CCNCC1)c1nnc(CN)o1 | > 54 µM (inactive)
COc1cc(/C=C2/SC(=S)N(CC3CCCO3)C2=O)ccc1O (stereo not given) | > 54 µM (inactive)
O=C(O)CCCCCN1C(=O)/C(=C\c2ccc(-c3ccc(Cl)cc3)o2)SC1=S | 16.5 µM
